{"source": "patent US20240239775A1", "about": "“FXR REGULATOR, PREPARATION METHOD THEREFOR, PHARMACEUTICAL COMPOSITION THEREOF AND USE THEREOF” (QINGDAO RUIJI MEDICAL TECHNOLOGY CO., LTD., priority 2021, published 2024)", "data": [{"target": "T1, FXR (Homo sapiens, UniProt Q96RI1)", "T1 construct": "5 μL of 20 nM FXR-LBD Complete Coregulator buffer G; purchased ThermoFisher PV4833", "T1 sequence (Q96RI1 262-486 limits assumed)": "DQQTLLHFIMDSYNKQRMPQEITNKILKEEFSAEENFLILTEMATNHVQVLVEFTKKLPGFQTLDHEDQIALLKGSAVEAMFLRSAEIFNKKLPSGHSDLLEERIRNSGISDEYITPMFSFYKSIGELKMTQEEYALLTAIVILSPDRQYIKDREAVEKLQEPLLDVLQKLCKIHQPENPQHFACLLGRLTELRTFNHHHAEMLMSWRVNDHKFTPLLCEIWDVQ", "assay": "FXR antagonist screening by TR-FRET (LanthaScreen TR-FRET FXR co-activation assay kit)", "type": "biochemical", "conditions": "Table 1.1, FXR antagonistic activity; TR-FRET with CDCA; geometric means of at least two independent runs", "in_short": "(§1)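 FXR-LBD (20 nM working solution) mixed with compound, CDCA (200 μM working solution) as agonist, Fluorescein-SRC2-2 and Tb-anti-GST antibody in Coregulator buffer G; 10 h at room temperature. Coactivator recruitment read by TR-FRET, triplicate wells.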", "units": {"IC50": "µM"}, "values": [{"smiles": "CCOC(=O)c1oc2ccc(S(=O)(=O)N(CCc3ccccc3)Cc3ccc(C#N)cc3)cc2c1C", "note": "[Example M4-33, ethyl 3-methyl-5-(N-(4-cyanobenzyl)-N-phenethylsulfamoyl)benzofuran-2-carboxylate]", "IC50": "50 to 100"}, {"smiles": "CCOC(=O)c1oc2ccc(S(=O)(=O)N(CCc3ccccc3)c3ccccc3)cc2c1C", "note": "[Example M8-10]", "IC50": "50 to 100"}, {"smiles": "CCOC(=O)c1oc2ccc(S(=O)(=O)N(CCc3ccccc3)c3ccc(CN4CCN(C(=O)OC(C)(C)C)CC4)cc3)cc2c1C", "note": "[Example M8-76, ethyl 3-methyl-5-(N-(4-((4-(tert-butoxycarbonyl)piperazin-1-yl)methyl)phenyl)-N-phenethylsulfamoyl)benzofuran-2-carboxylate]", "IC50": "50 to 100"}, {"smiles": "CCOC(=O)c1oc2ccc(S(=O)(=O)N(CCc3ccccc3)c3ccc(N4CCN(C(=O)c5ccccc5)CC4)cc3)cc2c1C", "note": "[Example M8-69, ethyl 3-methyl-5-(N-(4-(4-benzoylpiperazin-1-yl)phenyl)-N-phenethylsulfamoyl)-3-methylbenzofuran-2-carboxylate]", "IC50": "50 to 100"}]}, {"target": "T1, FXR", "assay": "FXR antagonist screening by TR-FRET (LanthaScreen TR-FRET FXR co-activation assay kit)", "type": "biochemical", "conditions": "Table 1.2, FXR antagonistic activity; TR-FRET with CDCA; geometric means of at least two independent runs", "in_short": "as §1", "units": {"IC50": "µM"}, "values": [{"smiles": "Cc1c(C(=O)O)oc2ccc(S(=O)(=O)N(CCc3ccccc3)c3ccccc3N3CCN(C(=O)c4ccccc4Cc4ccccc4)CC3)cc12", "note": "[Example F27-S134, 5-(N-(2-(4-(2-benzylbenzoyl)piperazin-1-yl)phenyl)-N-phenethylsulfamoyl)3-methylbenzofuran-2-carboxylic acid]", "IC50": "0.1 to 10"}, {"smiles": "Cc1c(C(=O)O)oc2ccc(S(=O)(=O)N(CCc3ccccc3)c3ccccc3N3CCN(C(=O)c4ncc[nH]4)CC3)cc12", "note": "[Example F27-S142, 5-(N-(2-(4-(1H-imidazole-2-formyl)piperazin-1-yl)phenyl)-N-phenethylsulfamoyl)3-methylbenzofuran-2-carboxylic acid]", "IC50": "0.1 to 10"}, {"smiles": "CCOC(=O)c1oc2ccc(S(=O)(=O)N(CCc3ccccc3)c3ccccc3N3CCN(C(=O)c4ccc([N+](=O)[O-])cc4)CC3)cc2c1C", "note": "[Example M10-114, Ethyl 3-methyl-5-(N-(2-(4-(4-nitrobenzoyl)piperazin-1-yl)phenyl)-N-phenethylsulfamoyl)benzofuran-2-carboxylate]", "IC50": "50 to 100"}, {"smiles": "Cc1c(C(=O)O)sc2ccc(S(=O)(=O)N(CCCc3ccccc3)c3ccccc3N3CCN(C(=O)c4sccc4Br)CC3)cc12", "note": "[Example F27-S176, 5-(N-(2-(4-(3-bromothiophene-2-carbonyl)piperazin-1-yl)phenyl)-N-(3-phenylpropyl)sulfamoyl)-3-methylbenzothiophene-2-carboxylic acid]", "IC50": "0.1 to 10"}, {"smiles": "Cc1c(C(=O)O)sc2ccc(S(=O)(=O)N(C)c3ccccc3N3CCN(C(=O)c4sccc4Br)CC3)cc12", "note": "[Example F27-S182, 5-(N-(2-(4-(3-bromothiophene-2-carbonyl)piperazin-1-yl)phenyl)-N-methylsulfamoyl)-3-methylbenzothiophene-2-carboxylic acid]", "IC50": "0.1 to 10"}, {"smiles": "CCOC(=O)c1oc2ccc(S(=O)(=O)N(CCc3ccccc3)c3ccccc3N3CCN(C(=O)c4ccc(C)c(C)c4)CC3)cc2c1C", "note": "[Example M10-132, Ethyl 5-(N-(2-(4-(3,4-Dimethylbenzoyl)piperazin-1-yl)phenyl)-N-phenethylsulfamoyl) 3-methylbenzofuran-2-carboxylate]", "IC50": "50 to 100"}, {"smiles": "Cc1c(C(=O)O)oc2ccc(S(=O)(=O)N(CCc3ccccc3)c3ccccc3N3CCC4(CC3)CN(C(=O)c3sccc3Br)C4)cc12", "note": "[Example F27-S150]", "IC50": "0.1 to 10"}, {"smiles": "CCC(CC)C(=O)N1CCN(c2ccccc2N(CCc2ccccc2)S(=O)(=O)c2ccc3oc(C(=O)O)c(C)c3c2)CC1", "note": "[Example F27-S145, 5-(N-(2-(4-(2-ethylbutyryl)piperazin-1-yl)phenyl)-N-phenethylsulfamoyl)3-methylbenzofuran-2-carboxylic acid]", "IC50": "0.1 to 10"}, {"smiles": "Cc1c(C(=O)O)oc2ccc(S(=O)(=O)N(CCc3ccccc3)c3ccccc3N3CCN(C(=O)c4ccno4)CC3)cc12", "note": "[Example F27-S146, 5-(N-(2-(4-(isoxazole-5-carbonyl)piperazin-1-yl)phenyl)-N-phenethylsulfamoyl)3-methylbenzofuran-2-carboxylic acid]", "IC50": "0.1 to 10"}]}]}
